Key:
Bad = assay: Serine 136 phosphorylation of Bad in OA-treated cells, western blot; type: cell-based, murine
Method: A) Cells were treated with or without 1 μM OA in the presence or the absence of IL-4. […] Protein bands were detected using ECL.
Cells (1×10^7) were IL-4-stimulated or -deprived and lysed for 20 min at 4° C. in lysis buffer (50 mM Tris HCl pH 8, 1% NP40, 137 mM NaCl, 1 mM MgCl2, 1 mM CaCl2, 10% glycerol and protease inhibitors cocktail). Digitonin or detergent free buffers were also used for immunoprecipitation. For phosphorylation analysis, the buffer was also supplemented with phosphatase inhibitors cocktail. Lysates were immunoprecipitated with the Appropriate antibody and Protein A Sepharose was added. Alliteratively, cells were lysed in Laemmli sample buffer and protein extracts separated by SDS-PAGE, transferred to nitrocellulose, blocked and incubated with primary antibody. Membrane was washed and incubated. with PO-conjugated secondary antibody. Proteins were developed using the ECL.
As IL-4-deprivation correlates with Bad dephosphorylation and apoptosis, it was hypothesized that inhibition of phosphatase activity by okadaic acid (OA) treatment may prevent Bad dephosphorylation and apoptosis. Treatment of the cells with 1 μM OA in the absence of IL-4 prevented Bad dephosphorylation at serine 136 (FIG. 9A). […] The inhibition of Bcl-xL and Bcl-w expression upon antisense oligonucleotide treatment was estimated by Western blot.

[1] = test system: type 1 and type 2A activities; assay: In vitro phosphatase assay in supernatants of Bad and Bcl-w immunoprecipitates with okadaic acid; type: biochemical, murine; conditions: 10^−9 M OA
Method: B) Different concentrations of OA were added to Bad or Bcl-w immunoprecipitates from IL-4 stimulated cells. Phosphatase activity was estimated using ^32P phosphorylase a as substrate. The reaction was as in A. Similar results were obtained in three independent experiments. Phosphatase activity is represented as the percentage of maximal activity in untreated supernatants.
(§1) IL-4-stimulated cells (1×10^7) were lysed in lysis buffer, supernatants were immunoprecipitated with the corresponding antibody, followed by incubation with Protein A Sepharose. Immunoprecipitates were washed with phosphatase buffer (50 mM Tris HCl, pH 7.5, 0.1% 2-ME, 0.1 mM EDTA and 1 mg/ml BSA) and mixed with [^32P] phosphorylase a, diluted in phosphatase buffer supplemented with caffeine. The reaction was incubated (40 min at 30° C.), stopped with 200 μl 20% TCA and centrifuged. A total of 185 μl of the supernatant were used to estimate the generation of free phosphate liberated from [^32P] phosphorylase a.
The enzymatic activity in the immunoprecipitates was measured using ^32P-labeled phosphorylase a as substrate. It is interesting to notice that phosphatase activity detected in Bcl-xL and Bcl-w immunoprecipitates nearly corresponds to the phosphatase activity observed in Bad immunoprecipitates. […]

PP1c [2] = molecular target: T1, PP1c (Mus musculus, UniProt P62137); assay: In vitro phosphatase assay in Bad or Bcl-w immunoprecipitates with okadaic acid, 32P phosphorylase a as substrate; type: biochemical, murine; design: enzymatic activity was estimated in Bad or Bcl-w immunoprecipitates from IL-4-stimulated cells; endogenous in cells; host or cells: TS1αβ murine T cell line, IL-4-stimulated; anti-Bad or anti-Bcl-w immunoprecipitates on Protein A Sepharose
Method: B) Different concentrations of OA were added to Bad or Bcl-w immunoprecipitates from IL-4 stimulated cells. Phosphatase activity was estimated using ^32P phosphorylase a as substrate. […] Phosphatase activity is represented as the percentage of maximal activity in untreated supernatants.
as §1
Target sequence in this assay (P62137 2-330): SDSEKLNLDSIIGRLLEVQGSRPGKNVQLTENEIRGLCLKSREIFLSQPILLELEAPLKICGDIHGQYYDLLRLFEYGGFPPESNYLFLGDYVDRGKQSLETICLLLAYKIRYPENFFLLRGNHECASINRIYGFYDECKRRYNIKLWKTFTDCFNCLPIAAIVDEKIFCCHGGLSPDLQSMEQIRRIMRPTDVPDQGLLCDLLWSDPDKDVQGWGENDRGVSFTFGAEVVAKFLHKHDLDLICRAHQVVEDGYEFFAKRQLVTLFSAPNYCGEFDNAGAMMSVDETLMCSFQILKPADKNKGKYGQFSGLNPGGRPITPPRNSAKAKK
Target sequence in this assay (P70345 2-193, further chain): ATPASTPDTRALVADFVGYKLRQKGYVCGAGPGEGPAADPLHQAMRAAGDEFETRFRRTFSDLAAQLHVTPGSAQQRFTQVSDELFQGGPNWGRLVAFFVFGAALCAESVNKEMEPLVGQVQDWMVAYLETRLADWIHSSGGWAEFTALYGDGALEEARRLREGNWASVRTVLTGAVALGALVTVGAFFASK
Target sequence in this assay (Q61337 whole entry, further chain): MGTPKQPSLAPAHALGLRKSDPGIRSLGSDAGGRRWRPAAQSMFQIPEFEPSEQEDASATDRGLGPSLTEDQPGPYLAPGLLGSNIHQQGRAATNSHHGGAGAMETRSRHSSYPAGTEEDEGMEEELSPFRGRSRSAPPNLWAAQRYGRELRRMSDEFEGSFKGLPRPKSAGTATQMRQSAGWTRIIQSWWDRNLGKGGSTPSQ
The enzymatic activity in the immunoprecipitates was measured using ^32P-labeled phosphorylase a as substrate. […] To confirm that this phosphatase activity was due to PP1c, enzymatic activity was estimated in Bad or Bcl-w immunoprecipitates from IL-4-stimulated cells in the presence of different okadaic acid (OA) concentrations (FIG. 5B). […] The effect of OA on phosphatase activity was also estimated in supernatants of Bad and Bcl-w immunoprecipitates.

TS1αβ cells = assay: Apoptosis by propidium iodide staining and flow cytometry; type: cell-based, murine; conditions: IL-4-deprived cells, 1 μM OA for 6 h
PP1c [3] = molecular target: T2, PP1c (Homo sapiens, UniProt P62136); assay: PP1c binding assay on cellulose-bound Bcl-xL or Bcl-w peptides; conditions: membrane-immobilized peptides, anti-PP1c antibody, ECL
T2 construct: purchased Calbiochem
Text: Spots were detected using ECL system. […] Mutated amino acids into the motif are in bold and underlined. Similar results were obtained in two independent experiments. Peptide 1 corresponds to the PP1 binding motif of Bcl-xL and Bcl-w. Peptide 2 corresponds to the mutated PP1 binding site were V and F residues were mutated to A. FIG. 5b contains the following sequences: NWGRIVAFFSFG (SEQ ID NO: 6), NWGRIAAAFSFG (SEQ ID NO: 51): GDEFELRYRRAF (SEQ ID NO: 7). GDEGELGYGRAF (SEQ ID NO: 59): GDESELSYSRAF (SEQ ID NO: 54). GDEFELGYGRAF (SEQ ID NO: 55): GDEFELSYSRAF (SEQ ID NO: 56). GDEGELRYRRAF (SEQ ID NO: 57): GDEGELRYRRAF (SEQ ID NO: 58): GDEGELGYRRAF (SEQ ID NO: 59). GDESELSYRRAF (SEQ ID NO: 60). PNWGRLVAFFVFG (SEQ ID NO: 61): PNWGRLAAAFVFG (SEQ ID NO: 62). GDEFETRFRRTFS (SEQ ID NO: 63): GDEFETGFGRTFS (SEQ ID NO: 64). GDEFETGFGRTFS (SEQ ID NO: 65), GDEFETRFGRTFS (SEQ ID NO: 66). GDEGETGFRRTFS (SEQ ID NO: 67). GDEGETRFRRTFS (SEQ ID NO: 68). FIG. 5a contains the following sequences FSRRYR (SEQ ID NO: 5). FTARGR (SEQ ID NO: 5). FELRYR (SEQ ID NO: 5). FETRFR (SEQ ID NO: 5).
Membrane was blocked, incubated with purified PP1c and, after several washing steps, incubated with anti-PP1c antibody, followed by PO-conjugated secondary antibody. Spots were developed using the ECL system.
It has been described that R/K X V/I X F motif is shared by most of the PP1c targeting subunits (21, 23). […]

PP1c [4] = molecular target: T1, PP1c; assay: Phosphatase activity in peptide-treated Bad immunoprecipitates; type: biochemical, murine; design: Lysates from IL-4-stimulated cells were immunoprecipitated with anti-Bad antibody and Protein A Sepharose was added; endogenous in cells; host or cells: TS1αβ murine T cell line, IL-4-stimulated; anti-Bad immunoprecipitates on Protein A Sepharose; conditions: 1.5 mM peptide, 30 min, room temperature
Method: B) Cytoplasmic lysates from IL-4-stimulated cells were immunoprecipitated with anti-Bad antibody. Immunoprecipitates were treated with 1.5 mM of R, R*, F or R+F peptides for 30 min at room temperature. Immunoprecipitates were washed and phosphatase activity estimated using ^32P phosphorylase a as substrate. Similar results were obtained in two independent experiments.
C) Cytoplasmic lysates from IL-4-stimulated cells were immunoprecipitated with anti-Bad antibody and then treated with 1.5 mM of R+F peptide or 3 mM of R or F peptide (30 min, room temperature). Immunoprecipitates were washed and phosphatase activity estimated as in B.
IL-4-stimulated cells (1×10^7) were lysed in lysis buffer, supernatants were immunoprecipitated with the corresponding antibody, followed by incubation with Protein A Sepharose. […]
(§2) Lysates from IL-4-stimulated cells were immunoprecipitated with anti-Bad antibody and the interaction Bcl-xL/PP1c and Bcl-w/PP1c was competed using R* (NWGRIAAAFSF) (SEQ ID NO: 8), R (NWGRIVAFFSF) (SEQ ID NO: 6) or F (GDEFELRYRRAF) (SEQ ID NO: 7) peptides (FIG. 8A). Bcl-xL, Bcl-w and PP1c were detected in control anti-Bad immunoprecipitates, as well as in anti-Bad immunoprecipitates treated with R* peptide. […] Phosphatase activity was detected in control or R* peptide-treated immunoprecipitates (FIG. 8B), decreasing upon competition of the interaction with F or R peptides. […]
Target sequence in this assay (P62137 2-330 limits assumed): as the sequence (P62137 2-330) above

[5] = molecular target: T3, Bcl-xL/PP1c/Bad and Bcl-w/PP1c/Bad (Mus musculus, UniProt P62137); assay: Protein-protein interaction competition in anti-Bad immunoprecipitates, western blot; type: binding, murine; conditions: 1.5 mM peptide, 30 min, room temperature; anti-Bad immunoprecipitates of IL-4-stimulated cells
T3 construct: Lysates from IL-4-stimulated cells were immunoprecipitated with anti-Bad antibody and Protein A Sepharose was added; endogenous in cells; host or cells: TS1αβ murine T cell line, IL-4-stimulated; anti-Bad immunoprecipitates on Protein A Sepharose
Method: A) Cytoplasmic extracts from control IL-4-stimulated cells were immunoprecipitated with anti-Bad antibody. The interaction Bcl-xL/PP1c/Bad and Bcl-w/PP1c/Bad was competed with 1.5 mM of R, R*, F or R+F peptides for 30 min at room temperature. Immunoprecipitates were washed, transferred to nitrocellulose and blotted with anti-Bad, anti-PP1c, anti-Bcl-xL and anti-Bcl-w. Similar results were obtained in two independent experiments. For sequence of peptides, see Materials and Methods or FIGS. 5A and 5B.
Cells (1×10^7) were IL-4-stimulated or -deprived and lysed for 20 min at 4° C. in lysis buffer (50 mM Tris HCl pH 8, 1% NP40, 137 mM NaCl, 1 mM MgCl2, 1 mM CaCl2, 10% glycerol and protease inhibitors cocktail). Digitonin or detergent free buffers were also used for immunoprecipitation. […]
as §2

T2 sequence (P62136 whole entry): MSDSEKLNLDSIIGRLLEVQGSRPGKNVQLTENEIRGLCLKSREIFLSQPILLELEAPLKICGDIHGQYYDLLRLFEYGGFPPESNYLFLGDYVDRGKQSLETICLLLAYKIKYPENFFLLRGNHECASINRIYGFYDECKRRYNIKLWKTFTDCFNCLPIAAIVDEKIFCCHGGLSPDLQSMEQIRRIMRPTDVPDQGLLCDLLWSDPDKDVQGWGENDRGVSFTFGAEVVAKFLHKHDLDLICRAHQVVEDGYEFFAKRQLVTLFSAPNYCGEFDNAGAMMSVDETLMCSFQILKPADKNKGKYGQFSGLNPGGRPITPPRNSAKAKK
T3 sequence (P62137 2-330 limits assumed): as the sequence (P62137 2-330) above

## C=C1[C@@H](O)[C@@H]2O[C@]3(CC[C@H](/C=C/[C@@H](C)[C@@H]4CC(C)=C[C@@]5(O[C@H](C[C@@](C)(O)C(=O)O)CC[C@H]5O)O4)O3)CC[C@H]2O[C@@H]1[C@@H](O)C[C@H](C)[C@H]1O[C@@]2(CCCCO2)CC[C@H]1C [OA, okadaic acid]
Bad; 1 μM OA in the absence of IL-4
  Bad dephosphorylation at serine 136: prevented
Bad; after OA treatment (1 μM)
  total Bad expression: No changes
[1]
  inhibition of phosphatase activity in the supernatant: ~50%
PP1c [2]; 10^−6 M OA, Bcl-w or Bad immunoprecipitates
  phosphatase activity: strongly reduced
PP1c [2]; 10^−8 M OA, Bcl-w or Bad immunoprecipitates
  inhibition at 0.01 µM: ~50%
PP1c [2]; 10^−9 M OA, Bad or Bcl-w immunoprecipitates from IL-4-stimulated cells
  effect on Bad- or Bcl-w-associated phosphatase activity in vitro: no effect
TS1αβ cells
  fraction of apoptotic cells compared with untreated cells: significant reduction

## FELRYR
PP1c [3]
  binding to purified PP1c: interacts with PP1c

## FETRFR
PP1c [3]
  binding to purified PP1c: interacts with PP1c

## GDEFELRYRRAF [F peptide]
PP1c [4]
  phosphatase activity in peptide-treated Bad immunoprecipitates: decreasing
[5]
  amount of Bcl-xL, Bcl-w and PP1c associated to Bad after competition: decreases
